The test system of data set [1] is iPSC-derived pericyte-like cells. In words: Aβ42-Hylite488 internalization by pericyte-like cells (confocal microscopy). Type of data set: cell-based, human. To be noted: confocal microscopy (Fig. 5D).
Text: Data are reported as mean ± standard deviation. […] The last column contains the merged images. Scale bars: 10 μm. […] (n = 4 wells of biological replicates per condition) **: p < 0.01 in Student’s t-test. Data are reported as mean ± standard deviation. […] Confocal microscopy images were taken at 5 μm z-slice intervals. All z-slices with Hoechst 33342 nuclear staining were aggregated for maximum intensity projection analysis. Scale bars: 10 μm.
For data set [2], the target named is T1, LRP1 (Homo sapiens, UniProt Q07954).
T1 construct: endogenous in cells; host or cells: APOE3 human iPSC-derived BMEC-like cells
Nature of the data set: in vitro Aβ transcytosis assay with LRP1 inhibition by RAP. It is filed as cell-based. The conditions noted are these: APOE3 iPSC-derived BMEC-like cells on Transwell; with and without RAP; 3 h; apical Aβ40 by ELISA; n = 8 wells (Fig. 2D). The protocol: (§1) Transwells (Corning, 3460) pre-coated with 200 uL 0.5 mg/mL collagen IV (Sigma, C5533) overnight at 37 °C. iPSC-derived BMEC-like cells were seeded at 1 million/cm^2 on Transwells (Corning, 3460) in hECSR media. […] This buffer helps to maintain Aβ in monomeric and denatured state. Stocks were then diluted to 500 nM in hECSR medium immediately before experiments. For experiments conditions when recombinant APOE is added, recombinant APOE2 (Peprotech, 350 − 12), APOE3 (Peprotech, 350-02) or APOE4 (Peprotech, 350-04) were added at concentration of 500 nM. In transcytosis assay, 1.5 mL of hECSR medium with Aβ and/or recombinant APOE was added to the basolateral chamber. 0.5 mL of hECSR media that is Aβ-free and APOE-free was added to the apical chamber. The Transwells were then incubated at 37 °C on a 300 rpm orbital shaker for 3 h. Media samples from the apical chamber were taken and analyzed.
(Fig. 2A). […] (Fig. 2E).

The target in data set [3] is T1, LRP1. Nature of the data set: Aβ42-Hylite488 internalization by pericyte-like cells with LRP1 inhibition by RAP. Type of data set: cell-based. To be noted: APOE3 pericyte-like cells; with or without RAP; confocal MFI; n = 4 (Fig. 5D, E). The source says: Patients with AD commonly have amyloid deposits associated with their brain vasculature, contributing to a pathological condition known as cerebral amyloid angiopathy (CAA). Recently, a role of pericytes in CAA has been reported. We quantified deposition of Aβ42, the Aβ isoform more prone to aggregation, for pericyte-like cells expressing different APOE isoforms. […] The pericyte-like cells were then singularized, washed and fixed, but not permeabilized, for cell surface immunolabeling with an anti-Aβ antibody. […] In the same way, we then examined the impact of APOE genotype on pericyte-like cell internalization of Aβ42.
Pericyte-like cells were then singularized, washed and labeled with anti-Aβ-FITC antibody for flow cytometry quantification of cell surface-associated Aβ42. […] FSC: forward scatter. Histogram is normalized to mode. […] Data are reported as mean ± standard deviation. (D) Representative confocal microscopy images showing accumulation of intracellular Aβ42-Hylite488 with or without LRP1 inhibition by RAP in APOE3 pericyte-like cells. […] (E) Quantification of mean fluorescence intensity (MFI) of Aβ42-Hylite488 accumulated inside APOE3 pericyte-like cells by confocal microscopy. […] (G) Quantification of mean fluorescence intensity (MFI) in maximum intensity projection confocal microscopy images of Aβ42-Hylite488 accumulated inside iPSC-derived pericytes by confocal microscopy. […]

The subject of data set [4] is iPSC-derived BMEC-like cells. Nature of the data set: in vitro Aβ transcytosis assay (basolateral-to-apical, Transwell). Type of data set: cell-based, human. The conditions noted are these: 3 h, 37 °C; for effect of recombinant APOE isoform on Aβ42 trafficking: 500 nM rhAPOE plus 500 nM Aβ42 basolateral. As to the method:
as §1

[5] abbreviates: APOE KO BMEC-like cells on Transwell, apical ELISA, vs no APOE control, n = 12 (Fig. 3D).

T1 sequence (Q07954 20-4544): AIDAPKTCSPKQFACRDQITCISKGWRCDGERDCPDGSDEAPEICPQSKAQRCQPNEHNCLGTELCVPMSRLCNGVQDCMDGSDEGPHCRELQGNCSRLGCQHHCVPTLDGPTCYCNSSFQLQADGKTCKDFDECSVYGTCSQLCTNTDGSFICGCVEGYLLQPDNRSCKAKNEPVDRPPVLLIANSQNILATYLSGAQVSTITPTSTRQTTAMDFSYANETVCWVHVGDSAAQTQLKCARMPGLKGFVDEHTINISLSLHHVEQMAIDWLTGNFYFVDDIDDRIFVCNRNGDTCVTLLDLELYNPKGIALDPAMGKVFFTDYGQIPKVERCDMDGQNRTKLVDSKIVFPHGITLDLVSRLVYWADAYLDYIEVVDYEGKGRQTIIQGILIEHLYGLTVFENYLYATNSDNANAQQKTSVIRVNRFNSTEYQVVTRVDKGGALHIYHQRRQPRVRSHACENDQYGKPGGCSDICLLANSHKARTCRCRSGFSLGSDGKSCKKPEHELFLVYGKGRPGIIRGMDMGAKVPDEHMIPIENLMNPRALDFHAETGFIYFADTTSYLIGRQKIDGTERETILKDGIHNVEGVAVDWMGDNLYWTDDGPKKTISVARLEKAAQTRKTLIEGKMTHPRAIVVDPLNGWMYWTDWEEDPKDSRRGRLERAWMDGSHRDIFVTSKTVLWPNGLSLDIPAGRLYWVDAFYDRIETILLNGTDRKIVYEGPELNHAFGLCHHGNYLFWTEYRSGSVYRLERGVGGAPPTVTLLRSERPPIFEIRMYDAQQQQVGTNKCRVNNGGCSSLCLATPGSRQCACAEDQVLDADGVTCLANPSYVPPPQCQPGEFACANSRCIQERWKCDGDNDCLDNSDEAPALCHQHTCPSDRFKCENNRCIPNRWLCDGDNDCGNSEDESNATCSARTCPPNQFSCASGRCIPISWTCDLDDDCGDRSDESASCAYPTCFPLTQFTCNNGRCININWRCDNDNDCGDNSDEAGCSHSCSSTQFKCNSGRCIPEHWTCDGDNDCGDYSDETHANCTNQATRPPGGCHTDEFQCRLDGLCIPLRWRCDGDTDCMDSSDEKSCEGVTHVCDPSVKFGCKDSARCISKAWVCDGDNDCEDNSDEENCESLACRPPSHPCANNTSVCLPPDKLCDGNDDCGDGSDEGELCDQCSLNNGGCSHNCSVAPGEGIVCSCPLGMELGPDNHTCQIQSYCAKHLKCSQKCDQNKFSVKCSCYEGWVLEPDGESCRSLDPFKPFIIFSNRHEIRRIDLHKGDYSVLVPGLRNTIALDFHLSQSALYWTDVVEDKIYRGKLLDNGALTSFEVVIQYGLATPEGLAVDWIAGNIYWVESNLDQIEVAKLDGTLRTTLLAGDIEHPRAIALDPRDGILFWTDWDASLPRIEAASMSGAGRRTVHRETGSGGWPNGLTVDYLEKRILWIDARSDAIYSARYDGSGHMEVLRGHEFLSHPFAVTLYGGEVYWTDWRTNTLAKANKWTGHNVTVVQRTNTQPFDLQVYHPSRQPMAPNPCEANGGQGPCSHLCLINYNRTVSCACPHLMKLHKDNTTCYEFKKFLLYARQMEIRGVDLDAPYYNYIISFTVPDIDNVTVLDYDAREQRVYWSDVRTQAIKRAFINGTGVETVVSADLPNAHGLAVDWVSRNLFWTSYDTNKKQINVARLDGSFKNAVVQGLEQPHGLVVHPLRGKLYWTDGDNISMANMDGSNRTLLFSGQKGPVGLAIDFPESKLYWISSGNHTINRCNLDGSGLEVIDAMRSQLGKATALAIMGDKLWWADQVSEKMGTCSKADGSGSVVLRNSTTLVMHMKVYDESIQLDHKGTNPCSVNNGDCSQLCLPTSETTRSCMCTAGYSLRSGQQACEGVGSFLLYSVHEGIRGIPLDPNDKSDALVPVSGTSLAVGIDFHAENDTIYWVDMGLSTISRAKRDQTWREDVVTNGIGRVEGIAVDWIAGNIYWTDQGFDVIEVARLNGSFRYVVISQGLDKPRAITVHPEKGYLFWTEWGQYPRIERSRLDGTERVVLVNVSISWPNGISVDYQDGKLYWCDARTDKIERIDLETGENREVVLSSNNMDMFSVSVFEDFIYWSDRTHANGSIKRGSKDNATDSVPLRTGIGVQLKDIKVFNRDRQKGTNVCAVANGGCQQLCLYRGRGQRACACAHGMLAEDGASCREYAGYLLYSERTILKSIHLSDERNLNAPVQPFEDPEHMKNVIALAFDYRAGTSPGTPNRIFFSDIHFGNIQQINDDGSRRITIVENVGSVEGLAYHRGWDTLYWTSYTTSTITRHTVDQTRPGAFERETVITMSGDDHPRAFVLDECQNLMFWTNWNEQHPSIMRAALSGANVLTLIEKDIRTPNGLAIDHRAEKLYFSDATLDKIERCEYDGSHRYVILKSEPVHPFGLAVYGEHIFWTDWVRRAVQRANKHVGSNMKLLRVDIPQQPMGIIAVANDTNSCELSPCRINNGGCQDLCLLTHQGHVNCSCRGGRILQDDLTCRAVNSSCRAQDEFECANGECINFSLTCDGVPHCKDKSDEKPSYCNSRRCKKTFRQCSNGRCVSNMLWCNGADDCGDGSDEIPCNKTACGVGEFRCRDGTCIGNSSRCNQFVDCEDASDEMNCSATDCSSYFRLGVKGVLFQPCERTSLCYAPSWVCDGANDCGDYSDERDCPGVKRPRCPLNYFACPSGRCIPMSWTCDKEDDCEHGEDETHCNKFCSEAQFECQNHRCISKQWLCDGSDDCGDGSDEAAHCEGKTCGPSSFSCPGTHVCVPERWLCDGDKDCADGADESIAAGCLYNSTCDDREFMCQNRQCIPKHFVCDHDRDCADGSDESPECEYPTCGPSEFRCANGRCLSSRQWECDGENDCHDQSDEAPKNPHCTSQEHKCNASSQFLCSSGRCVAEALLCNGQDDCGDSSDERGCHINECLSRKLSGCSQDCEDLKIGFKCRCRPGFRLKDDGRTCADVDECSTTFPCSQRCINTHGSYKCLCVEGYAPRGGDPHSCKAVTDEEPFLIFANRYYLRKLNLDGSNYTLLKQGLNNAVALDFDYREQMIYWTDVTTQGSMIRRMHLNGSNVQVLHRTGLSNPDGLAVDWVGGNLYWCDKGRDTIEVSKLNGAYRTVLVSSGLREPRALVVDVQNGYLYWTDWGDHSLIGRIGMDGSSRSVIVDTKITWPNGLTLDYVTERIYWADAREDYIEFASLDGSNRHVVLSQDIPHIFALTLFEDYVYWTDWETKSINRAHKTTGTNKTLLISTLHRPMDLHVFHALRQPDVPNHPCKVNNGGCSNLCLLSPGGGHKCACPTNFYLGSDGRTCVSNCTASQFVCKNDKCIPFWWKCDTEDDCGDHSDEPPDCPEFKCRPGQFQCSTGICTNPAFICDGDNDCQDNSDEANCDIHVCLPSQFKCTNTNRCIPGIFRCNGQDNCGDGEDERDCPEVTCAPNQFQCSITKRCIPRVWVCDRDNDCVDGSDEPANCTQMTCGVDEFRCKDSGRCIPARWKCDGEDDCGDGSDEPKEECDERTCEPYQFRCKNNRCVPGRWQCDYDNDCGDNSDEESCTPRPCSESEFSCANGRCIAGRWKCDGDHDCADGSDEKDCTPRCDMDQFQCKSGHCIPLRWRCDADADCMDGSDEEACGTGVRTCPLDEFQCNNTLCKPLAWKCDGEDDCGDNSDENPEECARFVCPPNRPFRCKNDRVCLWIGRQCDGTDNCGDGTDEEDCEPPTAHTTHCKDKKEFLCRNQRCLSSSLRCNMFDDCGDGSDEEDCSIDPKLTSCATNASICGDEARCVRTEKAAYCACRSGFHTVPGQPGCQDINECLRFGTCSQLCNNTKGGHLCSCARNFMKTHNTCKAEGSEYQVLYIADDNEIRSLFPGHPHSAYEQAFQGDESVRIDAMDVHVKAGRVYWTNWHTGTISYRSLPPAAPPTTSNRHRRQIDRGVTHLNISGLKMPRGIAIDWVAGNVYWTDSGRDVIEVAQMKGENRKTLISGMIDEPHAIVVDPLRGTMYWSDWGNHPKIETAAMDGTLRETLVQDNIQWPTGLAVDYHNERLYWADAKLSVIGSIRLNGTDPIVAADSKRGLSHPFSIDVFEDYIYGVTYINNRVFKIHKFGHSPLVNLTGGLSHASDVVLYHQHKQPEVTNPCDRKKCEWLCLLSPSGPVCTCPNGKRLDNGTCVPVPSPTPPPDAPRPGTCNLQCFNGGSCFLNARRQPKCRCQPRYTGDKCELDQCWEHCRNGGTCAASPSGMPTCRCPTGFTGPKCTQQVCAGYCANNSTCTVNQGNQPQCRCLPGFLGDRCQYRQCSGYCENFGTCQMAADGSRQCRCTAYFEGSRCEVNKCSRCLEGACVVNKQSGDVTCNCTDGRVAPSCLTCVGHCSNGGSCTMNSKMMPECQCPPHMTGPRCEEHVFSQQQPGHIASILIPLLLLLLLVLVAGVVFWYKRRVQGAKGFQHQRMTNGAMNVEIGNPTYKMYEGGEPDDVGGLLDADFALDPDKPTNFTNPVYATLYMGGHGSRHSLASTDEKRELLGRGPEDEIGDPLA

Take “Aβ42-HyLite488: fluorescently labeled Aβ42”: the “internalization by APOE3 pericyte-like cells” value in data set [1] is reported as “internalized fluorescently labeled Aβ42-HyLite488”.
For the substance “RAP: LRP1 inhibitor; competes with APOE for LRP1 binding”, in data set [2], the “effect of LRP1 inhibition on basolateral-to-apical Aβ40 transcytosis” value is on record as “reduced but did not completely inhibit Aβ transcytosis”. In addition, the “effect of LRP1 inhibition on Aβ42-Hylite488 internalization” value in data set [3] is listed as “internalization was diminished”.
As to “rhAPOE2: recombinant human APOE2 (Peprotech, 350 − 12)”, the “effect of recombinant APOE isoform on Aβ42 trafficking” value in data set [4] (setting [5]) is “significantly increased the trafficking of Aβ42”.
As for “rhAPOE3: recombinant human APOE3 (Peprotech, 350-02)”, the “effect on basolateral-to-apical Aβ40 transcytosis” value in data set [4] (APOE3 iPSC-derived BMEC-like cells on Transwell, Aβ40 dosed basolateral with or without rhAPOE3, apical Aβ40 by ELISA, n = 8 wells (Fig. 2D)) is “facilitated Aβ40 transcytosis”. In addition, the “effect of recombinant APOE isoform on Aβ40 trafficking” value in data set [4] (APOE KO BMEC-like cells on Transwell, 500 nM rhAPOE plus 500 nM Aβ40 basolateral, apical ELISA, vs no APOE control, n = 12 (Fig. 3D)) was “significantly increased the trafficking of Aβ40”.
“rhAPOE4: recombinant human APOE4 (Peprotech, 350-04)”: the “effect of recombinant APOE isoform on Aβ42 trafficking” value in data set [4] (setting [5]) is reported as “does not provide any increase in Aβ40 or Aβ42 clearance”.

Source of the values: paper PMC11468049 (Fluids and Barriers of the CNS, 2024).
